What was measured:
Format in all cases: physicochemical
[1] = Dissolution test for L-DOPA ethyl ester/carbidopa dispersible tablets in water (USP dissolution apparatus, HPLC-UV); conditions: 100 ml purified water, room temperature, paddles 200 rpm
Protocol: The dissolution of L-DOPA ethyl ester and carbidopa dispersible tablets was measured in water at room temperature according to the following methodology which was designed to simulate the administration of these tablets to patients. The recommended use is to place a tablet (384 mg) for a few seconds in about 100 mls of water, and to dissolve while swirling or stirring. The suspension should be drunk within 30 minutes. In order to automate the measurement, a USP 6-Pot Dissolution Apparatus is used. Each of 6 tablets are dissolved in 100 ml of purified water in a 200 ml vessel at room temperature (23±2° C.). This is the minimum volume which may be used with the USP Dissolution Apparatus. The solutions are stirred with paddles rotating at 200 rpm, which simulates the turbulence caused when the solution is stirred in a cup, with a teaspoon. […] In this experiment specifically, the amount of L-DOPA ethyl ester or carbidopa is determined by using a 10 cm C18 column, based on 3 μ-diameter spherical silica particles with 100 Å pore size. The elution solvents comprise a gradient of acetonitrile and phosphate buffer with ion-pairing reagent (at pH 2.7). The detection technique is ultraviolet absorption at 280 nm, the wavelength of maximum absorption for both L-DOPA ethyl ester and Carbidopa.

[2] = L-DOPA ethyl ester degradation in solution and tablets, measured as level of L-DOPA over six months; conditions: oral solution acidified with HCl
Protocol: A comparison of L-DOPA ethyl ester (LDEE) degradation in LDEE oral solution (4° C.), and in two environmental conditions of LDEE and Carbidopa dispersible tablets (at 25° C./60% RH and at 40° C./75% RH), was performed by measuring the change in levels of L-DOPA in samples over a six month period of time. L-DOPA is the main degradation product of L-DOPA ethyl ester. Elevation in the level of L-DOPA indicates degradation of LDEE.
The change in the level of L-DOPA with time, expressed as percent of the concentration of LDEE in the sample, was determined in LDEE and Carbidopa Dispersible Tablets (Formulation V, packed in aluminum blisters) and in LDEE oral solution (packed in PET bottles). The composition of the solution was (per 1 ml): 57.1 mg LDEE, 1.2 mg Methylparaben, 1.6 mg Saccharin sodium, 0.1 mg Edetate disodium and cherry flavor. The solution was acidified with HCl to pH 4.0, in which the stability of LDEE is maximal. The solution was kept in refrigeration (4° C.) while the tablets were kept at room conditions (25° C. and 60% relative humidity) or in accelerated stability conditions (40° C. and 75% relative humidity). The results are shown below in Table 4 and in FIG. 4: […]

[3] = Stability of L-DOPA ethyl ester composition on incubation at 40° C.; conditions: after incubation for 6 months at 40° C.

| Percentage of Dissolution ([1]; 1 minute) [%] | Percentage of Dissolution ([1]; 2 minutes) [%] | Percentage of Dissolution ([1]; 5 minutes) [%] | pH at which the stability of LDEE is maximal [2] | Structure (SMILES) | L-DOPA ethyl ester content remaining [3] |
| --- | --- | --- | --- | --- | --- |
| 64.3 | 87.6 | 101.4 |  | C[C@@](Cc1ccc(O)c(O)c1)(NN)C(=O)O [Carbidopa, reference compound] |  |
| 67.2 | 90.1 | 102.7 | 4.0 | CCOC(=O)[C@@H](N)Cc1ccc(O)c(O)c1 [L-DOPA Ethyl Ester, L-DOPA ethyl ester] | at least 97 % by weight of the active ingredient |

Reference: patent US6703424B2, “Dispersible compositions containing L-DOPA ethyl ester” (Teva Pharmaceutical Industries, Ltgd., priority 1998, dated 2004)
